Results reported in patent publication US5494932A, “Sulfonic stilbene derivatives in the treatment of viral disease” (Merrell Dow Pharmaceuticals Inc., priority 1991, dated 1996).
Where two headings read alike, the source gives them in different places.

Tests used:
[1] = tested on: HIV-1 strain RF in C8166 cells; assay: Acute HIV-1 (RF) infection of C8166 cells: syncytial and p24 antigen assays; type: cell-based, HIV-1 (human C8166 cells)
Text: When evaluated in the human T cell line JM acutely infected with the GB8 virus, DIDS, H2 DIDS and SITS (Table I) suppressed virus-induced multinucleated giant cell formation (syncytia). […] We also examined the antiviral properties of these compounds in a second host-cell/virus system, i.e., the highly CD4+ C8166 cells infected with the Haitian strain of HIV-1, RF.
The cell lines used were the semi-mature human lymphoblastoid leukemia T cell line JM, the human T-lymphoblastoid C8166 cell line, the human cutaneous T cell lymphoma line H9 and, the human T cell transformed line MT-4. Stocks of HIV-1 strains RF and GB8 (kindly provided by Dr. Graham Farrar, Center for Applied Microbiological Research, Porton Dawn, England) were prepared from chronically infected H9 cells and acutely infected JM cells, respectively. Virus stocks consisted of cell-free growth medium (RPMI 1640 plus 10% fetal calf serum) containing freshly shed virus. Virus titres were determined by a standard plaque reduction assay.
Virus stocks (strains RF or GB8) were diluted into growth medium containing various concentrations of DIDS, H2 DIDS or SITS. The required number of cells were then immediately added and the virus allowed to absorb for 2 hours at 37° C. to give a multiplicity of infection (MOI) of 0.001 infectious units/cell. The virus-infected cells were pelleted, washed three times in phosphate buffered saline (PBS), and resuspended in fresh growth medium containing the appropriate concentrations of stilbene disulfonic acids. Cells were then distributed into 24-well culture plates (Falcon) and assayed as described below for virus infection. Alternatively, cells were first infected with HIV-1 (strains RF or GB8) for 2 hours at 37° C. at the above MOI. After extensive washing, cells were replated into fresh growth medium containing various concentrations of stilbene disulfonic acids. In the above experiments, syncytia were scored between 2 and 4 days postinfection (p.i.) in triplicate using an Olympus CK2 inverted microscope. The culture fluids were recovered between 3 and 5 days p.i., clarified by low speed centrifugation (2,000 rpm) for 5 minutes and the level of HIV-1 p24 core antigen in the supernatants was determined by p24 antigen ELISA (Coulter). The concentrations of stilbene disulfonic acids giving 50% inhibition of HIV-1 growth (IC50) were determined from the dose-response curves by linear regression analysis.

[2] = tested on: HIV-1 strain GB8 in JM cells; assay: Established HIV-1 (GB8) infection of JM cells, post-infection addition: syncytia and p24 antigen; type: cell-based, HIV-1 (human T cell line JM); settings: for activity at 100 µg/mL: Human immunodeficiency virus 1, 75 h
Experimental: The stilbene disulfonic acids blocked HIV-1 replication when the compounds were added within 2 hours of virus adsorption, i.e., prior to virus penetration, and the cells were cultured in the presence of the inhibitors. These compounds were next examined for antiviral activity at later stages of the infection process. At a MOI of 0.01 infectious units/cell (GB8 virus), viral glycoproteins appear at the surface of JM cells by 24 hours post-infection (p.i.) and initiate fusion with neighboring CD4^+ cells; the syncytial numbers show a good correlation with the production of cell-free virus (Tyms et al., 1990).
In post-treatent experiments, cells were first infected with HIV-1 strain RF or GB8 for 2 hours at 37° C. at a MOI of 0.01 and allowed to grow for either 24 or 43 hours before replating into fresh growth medium containing 100 μg/ml of DIDS, H2 DIDS or SITS. Syncytia were then scored at 52 and 68 hours p.i. in triplicate, and p24 viral core antigen in culture fluids were assayed at 75 hours p.i. as described above.
Protocol: JM cells were infected with HIV at a multiplicity of infection of 0.00025 syncytial forming units per cell. Virus adsorption was at room temperature for one hour. The cells were then washed three times and distributed in wells of a tissue culture plate at a concentration of 2×10^5 cells/well. Either DIDS, SITS or H2 DIDS (all at 100 μg/ml) were added to wells at 0, 24, 43 and 51 hours post-infection. As virus controls some wells had no drug added. Syncytia were scored at 43, 52 and 68 hours post-infection. The cell-free supernatant fluids of the virus control wells were harvested after 33, 43, 51, 68 and 75 hours post-infection. All other wells were harvested 75 hours post-infection. The supernatant fluid was then assayed for p24 viral core antigen.

[3] = tested on: HIV-1 strain GB8 in JM cells; assay: as above; type: cell-based, HIV-1 (human T cell line JM); settings: 100 μg/ml
HSV 2 = assay: Plaque reduction assay, HSV 2; type: cell-based
Experimental: Protocol: Plaque reduction assay. Treatment after adsorption during incubation.

[4] = 100 μg/ml, time of addition 0 h p.i.
[5] = 100 μg/ml, time of addition 24 h p.i.
[6] = 100 μg/ml, time of addition 43h
[7] = 100 μg/ml, time of addition 43 h p.i.

CC(=O)Nc1ccc(C=Cc2ccc(N=C=S)cc2S(=O)(=O)O)c(S(=O)(=O)O)c1 [SITS, 4-acetamido-4'-isothiocyanatostilbene-2,2'-disulfonic acid]
activity in syncytial and p24 antigen assays ([1]; 100 μg/ml, C8166 cells infected with RF): inactive
activity at 50 µg/mL ([1]; Human immunodeficiency virus 1, 50 µg/mL, RF strain in C8166 cells, read-out: P24 Antigen % Virus Control (values in parenthesis)): > 100%
activity at 100 µg/mL ([1]; Human immunodeficiency virus 1, 100 µg/mL, RF strain in C8166 cells, read-out: P24 Antigen % Virus Control (values in parenthesis)): > 100%
activity at 200 µg/mL ([1]; Human immunodeficiency virus 1, 200 µg/mL, RF strain in C8166 cells, read-out: P24 Antigen % Virus Control (values in parenthesis)): > 100%
Mean Syncytia 68 hrs ([2]; 100 μg/ml, time of addition 0h): 27
P24 Antigen (75 hours post-infection) ([2]; 100 μg/ml, time of addition 0 hours): 8680 pg/mL
P24 Antigen 75 h [2, 4]: 6.7 ng/mL
Syncytia at 52h [2, 4]: 4
Syncytia at 68h [2, 4]: 27
Mean Syncytia 68 hrs ([2]; 100 μg/ml, time of addition 24h): 77
P24 Antigen (75 hours post-infection) ([2]; 100 μg/ml, time of addition 24 hours): 21669 pg/mL
P24 Antigen 75 h [2, 5]: 21.7 ng/mL
Syncytia at 52h [2, 5]: 35
Syncytia at 68h [2, 5]: 77
Mean Syncytia 51 hrs [2, 6]: 59
Mean Syncytia 68 hrs [2, 6]: As VC
P24 Antigen (75 hours post-infection) ([2]; 100 μg/ml, time of addition 43 hours): 49245 pg/mL
P24 Antigen 75 h [2, 7]: 49.3 ng/mL
Syncytia at 52h [2, 7]: 59
Syncytia at 68h [2, 7]: 80
Mean Syncytia 68 hrs ([2]; 100 μg/ml, time of addition 51h): As VC
P24 Antigen (75 hours post-infection) ([2]; 100 μg/ml, time of addition 51 hours): 53830 pg/mL
activity at 100 µg/mL ([2]; 100 μg/ml, time of addition 24 h p.i., read-out: P24 Antigen 75 h, % (drug-free medium 100%)): 18.6%
activity at 100 µg/mL ([2]; 100 μg/ml, time of addition 43 h p.i., read-out: P24 Antigen 75 h, % (drug-free medium 100%)): 42.3%
activity at 100 µg/mL ([2]; read-out: P24 Antigen 75 h, % (drug-free medium 100%), 100 μg/ml, time of addition 0 h p.i.): 7.4%
activity at 100 µg/mL ([2]; read-out: P24 Antigen (75 hours post-infection), %, 100 μg/ml, time of addition 0 hours): 7.4%
activity at 100 µg/mL ([2]; read-out: P24 Antigen (75 hours post-infection), %, 100 μg/ml, time of addition 24 hours): 18.6%
activity at 100 µg/mL ([2]; read-out: P24 Antigen (75 hours post-infection), %, 100 μg/ml, time of addition 43 hours): 42.3%
activity at 100 µg/mL ([2]; read-out: P24 Antigen (75 hours post-infection), %, 100 μg/ml, time of addition 51 hours): 47.2%
relative order of antiviral potency ([2]; established HIV-1 infections): DIDS>H2 DIDS>>SITS
anti-syncytial activity relative to virus control ([2]; established infection): no anti-syncytial activity
p24 antigen (in words) ([2]; established infection): slightly reduced
Mean Syncytia 51 hrs ([3]; time of addition 0h): 4
Mean Syncytia 51 hrs ([3]; time of addition 24h): 35
Plaque counts (HSV 2; 0.1 μg/ml, first count): 34
Plaque counts (HSV 2; 0.1 μg/ml, second count): 26
Plaque counts (HSV 2; 1 μg/ml, first count): 28
Plaque counts (HSV 2; 1 μg/ml, second count): 25
Plaque counts (HSV 2; 1 μg/ml, third count): 23
Plaque counts (HSV 2; 10 μg/ml, first count): 25
Plaque counts (HSV 2; 10 μg/ml, second count): 25
Plaque counts (HSV 2; 10 μg/ml, third count): 24
Plaque counts (HSV 2; 100 μg/ml, first count): 16
Plaque counts (HSV 2; 100 μg/ml, second count): 13
activity at 0.1 µg/mL (HSV 2; read-out: Mean % VC (plaques)): > 100%
activity at 1 µg/mL (HSV 2; read-out: Mean % VC (plaques)): 100%
activity at 10 µg/mL (HSV 2; read-out: Mean % VC (plaques)): 100%
activity at 100 µg/mL (HSV 2; read-out: Mean % VC (plaques)): 63%
